In data set [1] the test system is TK6 cells. In words: Cytotoxicity analysis (Guava ViaCount, cell viability). Format: cell-based, human. The settings on record: Guava ViaCount assay, 26 h. As for the experimental part:
In the preliminary phase of the research, we determined the concentrations to be used in the subsequent experiments aimed at evaluating the potential genotoxicity of different molecules under study. First, we assessed the 2C-H, 2C-I, 2C-B, 25B-NBOMe, and MDMA-induced cytotoxicity after 26 h treatment (time required by TK6 cells to carry out two cell cycles) by measuring the percentage of live cells at the different concentrations tested (6.25, 12.5, 25, 35, 50, 75 µM). This value was normalized on the one obtained in the untreated control cultures C (-) equal to 100% in order to check whether the cellular viability complied with the OECD threshold (equal to 55 ± 5%).
(§1) In all experiments, aliquots of 2 × 10^5 of TK6 cells were treated with increasing concentrations of phenethylamines from 0 to 75 µM and incubated for 26 h, corresponding to two replication cycles for the analysis of cytotoxicity, cytostasis, apoptosis, and genotoxicity, while for the analysis of ROS, 1 h of treatment was performed.
Cytotoxicity assay was performed as previously described by Lenzi et al.. Briefly, at the end of the phenethylamines treatment time, 1.5 × 10^5 cells were stained with Guava ViaCount Reagent. The reagent contains the Propidium Iodide (PI) that allows us to discriminate viable from dead cells based on different permeability to DNA-binding dye.
180 μL of reagent were added to 20 μL of cell suspension and incubated for 5 min at room temperature (RT). After, a total of 1000 events were acquired and analyzed by Guava ViaCount software.
The results obtained from the samples treated with different concentrations of phenethylamines were normalized on those obtained from the untreated control cultures, accounted equal to 100%.

For data set [2], the system named is TK6 cells. The data set is described as follows: Apoptosis analysis (Guava Nexin Assay). Type of data set: cell-based, human. The settings on record: 26 h. The procedure:
as §1
The percentage of apoptotic cells was evaluated by the Guava Nexin Assay according to the procedure by Lenzi et al..
Briefly, at the end of the phenethylamines treatment time, the percentage of apoptotic cells was assessed using the Guava Nexin Reagent. The reagent contains the 7-aminoactinomycin D (7-AAD), a cell non-permeant dye, that allows discrimination between live and dead cells and the Annexin-V-PE that allows the identification of apoptotic cells by binding the phosphatidylserine on the cell surface.
100 μL of reagent were added to 100 μL of cell suspension (~1 × 10^5 cells) and incubated for 20 min at RT. After, a total of 2000 events were acquired and analyzed by Guava Nexin software.
The apoptotic cell percentages recorded in the cultures treated with phenethylamines different concentrations were normalized on those recorded in the untreated control cultures, accounted equal to 1 and expressed as apoptotic fold increase.

The test system of data set [3] is TK6 cells. In words: Cytostasis analysis (Relative Population Doubling, Guava ViaCount). Format: cell-based, human. The following applies: for Relative Population Doubling (RPD): 26 h treatment, vs untreated control C (-) = 100%, mean ± SEM; for concentrations that caused an RPD value well above 55 ± 5% (OECD threshold): 26 h, tested 6.25-75 µM.
Source text: In addition, to make the genotoxicity test reliable, it is necessary to check the cellular proliferation in order to verify that a sufficient number of cells has undergone mitosis and so transmitted the genetic damage suffered to the daughter cells. For this purpose, the OECD recommends the measurement of the Relative Population Doubling (RPD) to estimate the cytostasis and, analogously to the cytotoxicity, establishes a threshold at most equal to 55 ± 5% [45].
as §1
In parallel, always using the Guava ViaCount Reagent, the number of cells seeded at time 0 and that measured at the end of the phenethylamines treatment time was used to check the correct replication in the control cultures and to compare it to that measured in the treated cultures by the RPD, calculated as the following formula [46, 47]: RPD= (No. of Population doublings in treated cultures)/(No. of Population doublings in control cultures) × 100
Similarly to cytotoxicity, the cytostasis was checked in order to verify that cell proliferation respected the threshold established by the OECD guideline (55 ± 5%).

The subject of data set [4] is TK6 cells. In words: Genotoxicity analysis (micronucleus frequency, automated flow cytometric protocol). The settings on record: for MNi frequency fold increase: 26 h, vs C (-); for relative genotoxic potency: comparison within the series. Type of data set: cell-based, human. As for the experimental part:
as §1
The analysis of the MNi frequency was performed using a new automated flow cytometric protocol that we recently developed in our laboratory. The detailed protocol is described in the paper by Lenzi et al. and was used in our previous publication to analyze the genotoxicity of some synthetic cannabinoids.
Briefly, at the end of the phenethylamines treatment time, 7 × 10^5 cells were collected and incubated with 7-AAD at RT for 5 min, after which the cells were lysed and stained with SYTOX Green for 1 h. After, a total of 10,000 nuclei, derived from viable and proliferating cells (7-AAD negative), and the corresponding number of micronuclei were acquired. The discrimination between nuclei and MNi occurs on the basis of the different size analyzed by Forward Scatter (FSC), and the different intensity of green fluorescence (SYTOX Green).
The MNi frequencies (number of MNi/10,000 nuclei) recorded in treated cultures were normalized on those recorded in the untreated control cultures, accounted equal to 1 and expressed as MNi frequency fold increase.
As recommended by OECD guideline 487, we used MMC and VINB as positive controls, being known clastogen and aneuploidogen agents, respectively.

A further data set relates to HepG2 cells. Also noted: method as in PMID 31068823. The settings on record: cited from earlier work.
A further data set relates to HepG2. Also noted: method as in PMID 28645576. The settings on record: 24 h treatment; cited from earlier work.
In a further data set the test system is SH-SY5Y. Also noted: method as in PMID 28067045, PMID 30925718, PMID 28527032. The following applies: 2–24 h treatment, concentration-dependent (1000–3000 μM); cited from earlier work.
The test system of data set [5] is TK6 cells. Also noted: method as in PMID 27637481. The settings on record: CYP1A1, 1B1 and 1A2 not expressed; cited from earlier work.
Setting [6] is: both tested concentrations, 6.25 µM and 12.5 µM.
Setting [7] is: vs untreated control C (-) equal to 1, tested concentrations.

The structures appear in SMILES notation.

Consider `COc1cc(CCN)c(OC)cc1Br` [2C-B, 2,5-dimethoxy-4-bromophenethylamine], for which the “concentration up to which no cytotoxicity and cytostasis was induced” value in the data set with TK6 cells [1] is “up to 35 µM”. For the same compound, the apoptosis fold increase entry in the data set with TK6 cells [2] (25 µM and 35 µM, vs C (-)) is recorded as “statistically significant increase”. Moreover, the “Relative Population Doubling (RPD)” value in the data set on TK6 cells [3] (6.25 µM) was 95.9% ± 0.7; with TK6 cells [3] (12.5 µM) it was 93.1% ± 2.1; in the data set on TK6 cells [3] (25 µM), 69.7% ± 1.6; with TK6 cells [3] (35 µM), 63.1% ± 1.6; in the data set on TK6 cells [3] (50 µM), 10.0% ± 1.8; in the data set on TK6 cells [3] (75 µM), 0.0%. Further, the “concentrations that caused an RPD value well above 55 ± 5% (OECD threshold)” value in the data set on TK6 cells [3] is reported as “up to 35 µM”. In the data set with TK6 cells [4] (setting [6]), the “MNi frequency fold increase” value is “increased at both the tested concentrations”. Also, the relative genotoxic potency result in the data set on TK6 cells [4] is “stronger genotoxic agents than 2C-I and 2C-H”.
As to `COc1ccc(OC)c(CCN)c1` [2C-H, 2,5-dimethoxyphenethylamine], the “concentration up to which no cytotoxicity and cytostasis was induced” value with TK6 cells [1] was “up to 35 µM”. Further, in the data set with TK6 cells [2] (setting [7]), the apoptosis fold increase entry is “never reached a doubling”. For the same compound, the “Relative Population Doubling (RPD)” value is 97.5% ± 0.9 in the data set on TK6 cells [3] (6.25 µM); 81.1% ± 1.8 in the data set on TK6 cells [3] (12.5 µM); 85.0% ± 2.4 in the data set with TK6 cells [3] (25 µM); 74.0% ± 1.8 with TK6 cells [3] (35 µM); 34.1% ± 1.2 with TK6 cells [3] (50 µM); 13.0% ± 1.5 with TK6 cells [3] (75 µM). The “concentrations that caused an RPD value well above 55 ± 5% (OECD threshold)” value in the data set on TK6 cells [3] is “up to 35 µM”. In addition, the “MNi frequency fold increase” value in the data set with TK6 cells [4] (35 µM) is “statistically significant increase”.
Consider `COc1cc(CCN)c(OC)cc1I` [2C-I, 2,5-Dimethoxy-4-iodophenethylamine], for which the “concentration up to which no cytotoxicity and cytostasis was induced” value in the data set with TK6 cells [1] is on record as “up to 35 µM”. Also, in the data set on TK6 cells [2] (setting [7]), the apoptosis fold increase result is recorded as “never reached a doubling”. In addition, the “Relative Population Doubling (RPD)” value with TK6 cells [3] (6.25 µM) is 90.9% ± 0.7; in the data set with TK6 cells [3] (12.5 µM) it was 89.6% ± 2.2; in the data set with TK6 cells [3] (25 µM), 72.5% ± 2.0; with TK6 cells [3] (35 µM), 63.9% ± 1.6; in the data set on TK6 cells [3] (50 µM) it was 54.8% ± 0.9; in the data set on TK6 cells [3] (75 µM), 30.8% ± 1.0. The “concentrations that caused an RPD value well above 55 ± 5% (OECD threshold)” value in the data set with TK6 cells [3] is reported as “up to 35 µM”. Also, in the data set with TK6 cells [4] (35 µM), the “MNi frequency fold increase” value is listed as “statistically significant increase”.
`CC(N)Cc1ccc(Cl)cc1` (stereo not shown) [4-chloroamphetamine]: in the data set on HepG2 cells, the mitochondrial superoxide levels entry was “increase mitochondrial superoxide levels”.
Consider `CC(N)Cc1ccc(F)cc1` (stereo not shown) [4-fluoroamphetamine, 4-Fluoroamphetamine], for which the mitochondrial superoxide levels entry with HepG2 cells is “increase mitochondrial superoxide levels”.
In the case of `COc1cc(CCNCc2ccccc2OC)c(OC)cc1Br` [25B-NBOMe, 4-bromo-2,5-dimethoxy-N-[(2-methoxyphenyl)methyl]-benzeneethanamine], the “concentration up to which no cytotoxicity and cytostasis was induced” value in the data set with TK6 cells [1] was “up to 12.5 µM”. Besides, in the data set on TK6 cells [2] (setting [7]), the apoptosis fold increase entry is reported as “never reached a doubling”. Besides, the “Relative Population Doubling (RPD)” value with TK6 cells [3] (6.25 µM) is recorded as 86.4% ± 1.3; in the data set with TK6 cells [3] (12.5 µM) it was 81.2% ± 2.0; in the data set on TK6 cells [3] (25 µM) it was 50.0% ± 0.8; in the data set with TK6 cells [3] (35 µM), 1.0% ± 0.2; in the data set on TK6 cells [3] (50 µM), 0.0%; in the data set with TK6 cells [3] (75 µM) it was 0.0%. The “concentrations that caused an RPD value well above 55 ± 5% (OECD threshold)” value in the data set with TK6 cells [3] is recorded as “up to 12.5 µM”. The “MNi frequency fold increase” value in the data set on TK6 cells [4] (setting [6]) is reported as “increased at both the tested concentrations”. In addition, the relative genotoxic potency entry with TK6 cells [4] is “stronger genotoxic agents than 2C-I and 2C-H”.
As to `CCCC(C(=O)c1ccc2c(c1)OCO2)N1CCCC1` (stereo not shown) [MDPV], in the data set with HepG2, the “concentration that increased O2•− levels” value was 2 mM. Moreover, the superoxide levels result in the data set on SH-SY5Y is listed as “increase in superoxide levels”.
For the compound `CC(N)Cc1ccccc1` (stereo not drawn) [amphetamine, α-methylphenylethylamine], the mitochondrial superoxide levels entry in the data set with HepG2 cells is reported as “increase mitochondrial superoxide levels”.
With `c1ccc2c(c1)cc1ccc3cccc4ccc2c1c34` [benzo [a] pyrene], the micronuclei induction entry with TK6 cells [5] is listed as “failed to induce micronuclei”.
With `CNC(C)C(=O)c1ccc(C)cc1` (stereo not shown) [mephedrone], the “concentration that increased O2•− levels” value in the data set with HepG2 is 1 mM.
In the case of `CNC(C)C(=O)c1ccc2c(c1)OCO2` (stereo not shown) [methylone], the superoxide levels entry with SH-SY5Y is “increase in superoxide levels”.
As for `CCCC(C(=O)c1ccc2ccccc2c1)N1CCCC1` (stereo not shown) [naphyrone], the “concentration that increased O2•− levels” value in the data set on HepG2 is given as 0.2 mM.
As to `CCCC(C(=O)c1ccccc1)N1CCCC1` (stereo not shown) [αPVP], in the data set on SH-SY5Y, the superoxide levels entry was “increase in superoxide levels”.
